We go through four molecules from ChEMBL document CHEMBL5131401, “Structural Basis for Developing Multitarget Compounds Acting on Cysteinyl Leukotriene Receptor 1 and G-Protein-Coupled Bile Acid Receptor 1” (J Med Chem, 2021).

A word on the solubility: it is the concentration that dissolves in the medium under given conditions. As usually defined, the logD is the decadic logarithm of the distribution of all forms, ionised or not, between an organic phase and buffer at a given pH. Higher therefore signals higher lipophilicity. One may read the half-life as the time in which the quantity being followed falls by half.

SMILES strings stand for the structures. In brackets after ≈: the same amount, converted by molar mass.

Data set [1] is described as follows: Aqueous solubility of compound in pH 7.4 PBS buffer measured after 24 hrs by LC-MS/MS analysis. The data set is classed as physicochemical.
Data set [2] is described as follows: Lipophilicity, logD of the compound in octanol and phosphate buffer at pH 7.4 incubated for 2 hrs under shaking condition by LC-MS/MS analysis. It is filed as physicochemical.
The nature of data set [3]: Metabolic stability in human liver microsomes assessed as half life at 1 uM measured up to 60 mins in presence of NADPH by LC-MS/MS analysis. It is filed as ADME, Microsome. To be noted: for half-life at 1 µM: liver microsomes. On the technique in general: Liver microsomes are a subcellular fraction often used to study metabolism.
The nature of data set [4]: Metabolic stability in human liver S9 fraction assessed as half life at 1 uM measured after 2 hrs in presence of NADPH by LC-MS/MS analysis. It is filed as ADME, subcellular.

On to `O=C(O)c1cccc(OCc2ccc3ccccc3n2)c1`, for which the solubility at 24 h in data set [1] was over 200 µM. The same molecule returned a logD at 2 h in data set [2] of 0.12.

Molecule `CCC(C)COc1cccc(OCc2ccc3ccccc3n2)c1` (stereo not drawn) registered a solubility at 24 h in data set [1] of 3.5 µM (≈ 1.12 µg/mL). Moreover, the logD at 2 h in data set [2] is 1.01. For the same molecule, the half-life at 1 µM in data set [3] was determined as 22.3 min.

With `OCc1cccc(OCc2ccc3ccccc3n2)c1`, the half-life at 1 µM in data set [4] stood at 119 min; in data set [3] it was 48 min. In addition, in data set [1], the solubility at 24 h worked out at 141 µM (≈ 37.4 µg/mL). For the same molecule, in data set [2], the logD at 2 h came to 2.8.

Consider `CCCCCC(O)c1cccc(OCc2ccc3ccccc3n2)c1` (stereo not drawn) [REV-5901], for which the half-life at 1 µM in data set [4] was 57 min. In data set [1], this molecule gave a solubility at 24 h of 39.3 µM (≈ 13.2 µg/mL). Besides, the logD at 2 h in data set [2] stood at 3.1. Also, in data set [3] (microsomes, 1 h, 1 µM), the t1/2 was 37 h.
